Usually IC50 stands for the concentration at which inhibition is half-maximal.

The subject of one series is hepatocytes. The note with it: cited from earlier work.
The test system of a further series is db/db and ob/ob mice. The note with it: dose related; cited from earlier work.
The target in series [1] is T1, Human recombinant liver glycogen phosphorylase a (hrl GPa) (Homo sapiens, UniProt P06737).
T1 sequence (P06737 1-847): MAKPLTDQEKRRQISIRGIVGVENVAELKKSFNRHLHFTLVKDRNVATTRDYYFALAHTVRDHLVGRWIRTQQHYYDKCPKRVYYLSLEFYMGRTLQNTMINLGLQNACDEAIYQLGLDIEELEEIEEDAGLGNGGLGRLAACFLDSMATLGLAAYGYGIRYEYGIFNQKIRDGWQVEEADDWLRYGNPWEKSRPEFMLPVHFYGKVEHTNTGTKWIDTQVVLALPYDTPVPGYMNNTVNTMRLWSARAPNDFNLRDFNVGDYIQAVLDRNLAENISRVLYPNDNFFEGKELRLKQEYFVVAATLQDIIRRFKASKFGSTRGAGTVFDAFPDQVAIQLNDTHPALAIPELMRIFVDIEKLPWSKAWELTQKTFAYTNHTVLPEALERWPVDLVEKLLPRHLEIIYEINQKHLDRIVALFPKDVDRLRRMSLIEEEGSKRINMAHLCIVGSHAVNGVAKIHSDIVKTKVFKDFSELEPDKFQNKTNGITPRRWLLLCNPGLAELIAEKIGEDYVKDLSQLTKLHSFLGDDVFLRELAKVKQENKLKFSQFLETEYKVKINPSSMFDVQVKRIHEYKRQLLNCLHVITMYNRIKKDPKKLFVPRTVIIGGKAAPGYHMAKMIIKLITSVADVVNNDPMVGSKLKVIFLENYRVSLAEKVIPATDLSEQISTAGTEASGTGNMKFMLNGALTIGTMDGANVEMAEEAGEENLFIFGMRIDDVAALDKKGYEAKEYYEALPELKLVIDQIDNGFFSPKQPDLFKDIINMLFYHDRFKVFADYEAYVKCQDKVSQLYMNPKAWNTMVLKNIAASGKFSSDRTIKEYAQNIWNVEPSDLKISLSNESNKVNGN
The experiment in a line: Glycogen degradation multienzyme coupled assay (NADH fluorescence). The format is biochemical. The note with it: glycogen degradation direction. The procedure:
The activity of the compounds is alternatively determined by measuring the inhibitory effect of the compounds on glycogen degradation, the production of glucose-1-phosphate from glycogen is monitored by the multienzyme coupled assay, as described in EP 0 846 464 A2, general method of Pesce et al (Pesce, M A, Bodourian, S H, Harris, R C, and Nicholson, J F (1977) Clinical Chemistry 23, […]). The reactions were in 384 well microplate format in a volume of 50 μl. The change in fluorescence due to the conversion of the co-factor NAD to NADH is measured at 340 nm excitation, 465 nm emission in a Tecan Ultra Multifunctional Microplate Reader. The reaction is in 50 mM HEPES, 3.5 mM KH2PO4, 2.5 mM MgCl2, 2.5 mM ethylene glycol-bis(b-aminoethyl ether) N,N,N′,N′-tetraacetic acid, 100 mM KCl, 8 mM D-(+)-glucose pH7.2, containing 0.5 mM dithiothreitol, the assay buffer solution. Human recombinant liver glycogen phosphorylase a (hrl GPa) 20 nM is pre-incubated in assay buffer solution with 6.25 mM NAD, 1.25 mg type III glycogen at 1.25 mg ml^−1 the reagent buffer, for 30 minutes. […] The non-inhibited activity of GPa is measured in the presence of 10 μl 5% DMSO in assay buffer solution and maximum inhibition measured in the presence of 5 mgs ml^−1 N-ethylmaleimide. […] Relative Fluoresence Units (RFUs) are measured at 340 nm excitation, 465 nm emission. […]

The subject of the next series is conscious dogs. The note with it: cited from earlier work.

`O=C(N[C@@H](Cc1ccc(F)cc1)C(=O)N1CCC(O)CC1)c1cc2cc(Cl)ccc2[nH]1` [CP320626]: in the series on hepatocytes, the glucagon stimulated glycogenolysis entry is “reduce” and the “glucose output in hepatocytes” value is “reduce”. For the same compound, the plasma glucose concentration result with db/db and ob/ob mice is “reduced, in a dose related manner”.
Regarding `CN(C)C(=O)[C@H](O)[C@H](Cc1ccccc1)NC(=O)c1cc2cc(Cl)ccc2[nH]1` [CP91149], in the series with hepatocytes, the glucagon stimulated glycogenolysis entry is reported as “reduce” and the “glucose output in hepatocytes” value is given as “reduce”. Further, the plasma glucose concentration result in the series with db/db and ob/ob mice is given as “reduced, in a dose related manner”.
With `O=C(NCC(=O)N(CCO)c1ccccc1)c1cc2cc(Cl)ccc2[nH]1` [Example 1, 5-Chloro-N-{2-[(2-hydroxyethyl)phenylamino]-2-oxoethyl}-1H-indole-2-carboxamide], in series [1], the IC50 is 550 nM.
As to `CCN1C(C)=C(C(=O)OC(C)C)C(c2ccccc2Cl)C2=C1COC2=O` (stereo not drawn) [Bay R 3401], in the series with conscious dogs, the “arterial plasma glucose following a glucagon challenge” value is recorded as “reduced significantly” and the “hepatic glucose output following a glucagon challenge” value was “reduced significantly”.

The values are drawn from patent US7115648B2, “Indole-amide derivatives and their use as glycogen phosphorylase inhibitors” (AstraZeneca AB, priority 2002, dated 2006).
